From PubChem BioAssay (NCI)
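Five concentrations, 48 hours, 96-well plates. GI50 = concentration required for 50% inhibition of growth. At the TGI there is no net growth.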

How the values were obtained:
Assay in all cases: NCI tumour cell line growth inhibition, 48 h; in the data active = GI50 below about 0.43 µM; inactive = the rest
OVCAR-4 ovarian = test system: OVCAR-4 ovarian
NCI-H23 lung = test system: NCI-H23 lung
SK-MEL-28 melanoma = test system: SK-MEL-28 melanoma
BT-549 breast = test system: BT-549 breast
NCI-H522 lung = test system: NCI-H522 lung
SN12C renal = test system: SN12C renal
SNB-75 CNS = test system: SNB-75 CNS
M14 melanoma = test system: M14 melanoma
HOP-62 NSCLC = test system: HOP-62 NSCLC
HT29 colon = test system: HT29 colon
UO-31 renal = test system: UO-31 renal
RXF 393 renal = test system: RXF 393 renal
NCI-H226 lung = test system: NCI-H226 lung
OVCAR-3 ovarian = test system: OVCAR-3 ovarian
A498 renal = test system: A498 renal
A549 NSCLC = test system: A549 NSCLC
PC-3 prostate = test system: PC-3 prostate
TK-10 renal = test system: TK-10 renal
IGROV1 ovarian = test system: IGROV1 ovarian
SF-295 CNS = test system: SF-295 CNS
786-0 renal = test system: 786-0 renal
T-47D breast = test system: T-47D breast
OVCAR-8 ovarian = test system: OVCAR-8 ovarian
U251 CNS = test system: U251 CNS
LOX IMVI melanoma = test system: LOX IMVI melanoma
HOP-92 NSCLC = test system: HOP-92 NSCLC
CAKI-1 renal = test system: CAKI-1 renal
SF-268 CNS = test system: SF-268 CNS
SNB-19 CNS = test system: SNB-19 CNS
SF-539 CNS = test system: SF-539 CNS
SW-620 colon = test system: SW-620 colon
MDA-MB-231 breast = test system: MDA-MB-231 breast
K-562 leukemia = test system: K-562 leukemia
KM12 colon = test system: KM12 colon
NCI-H460 lung = test system: NCI-H460 lung
NCI/ADR-RES ovarian = test system: NCI/ADR-RES ovarian
OVCAR-5 ovarian = test system: OVCAR-5 ovarian
SK-MEL-5 melanoma = test system: SK-MEL-5 melanoma
UACC-257 melanoma = test system: UACC-257 melanoma
RPMI-8226 leukemia = test system: RPMI-8226 leukemia
EKVX NSCLC = test system: EKVX NSCLC
DU-145 prostate = test system: DU-145 prostate
HCT-15 colon = test system: HCT-15 colon
HCC-2998 colon = test system: HCC-2998 colon
MALME-3M melanoma = test system: MALME-3M melanoma
MOLT-4 leukemia = test system: MOLT-4 leukemia
MCF7 breast = test system: MCF7 breast
CCRF-CEM leukemia = test system: CCRF-CEM leukemia
COLO 205 colon = test system: COLO 205 colon
UACC-62 melanoma = test system: UACC-62 melanoma
SK-MEL-2 melanoma = test system: SK-MEL-2 melanoma
HS 578T breast = test system: HS 578T breast
MDA-MB-435 = test system: MDA-MB-435
SR leukemia = test system: SR leukemia
HCT-116 colon = test system: HCT-116 colon
ACHN renal = test system: ACHN renal

C#CCSc1cc(Cl)c(C)cc1S(=O)(=O)Nc1nc2ccccc2o1
75.4 µM: TGI (KM12 colon)
65.6 µM: TGI (HOP-62 NSCLC)
55.1 µM: TGI (HCT-116 colon)
52.8 µM: TGI (UO-31 renal)
61.5 µM: TGI (NCI-H522 lung)
61.2 µM: TGI (SF-295 CNS)
62.9 µM: TGI (MDA-MB-435)
73.5 µM: TGI (MALME-3M melanoma)
43.6 µM: TGI (SK-MEL-2 melanoma)
inactive: GI50 (OVCAR-4 ovarian) 51 µM | GI50 (NCI-H23 lung) 35.9 µM | GI50 (SK-MEL-28 melanoma) 54.7 µM | GI50 (BT-549 breast) 27.8 µM | GI50 (NCI-H522 lung) 25.7 µM | GI50 (SN12C renal) 43.5 µM | GI50 (SNB-75 CNS) 85.8 µM | GI50 (M14 melanoma) 32.1 µM | GI50 (HOP-62 NSCLC) 29 µM | GI50 (HT29 colon) 42.8 µM | GI50 (UO-31 renal) 23.8 µM | GI50 (RXF 393 renal) 32.9 µM | GI50 (NCI-H226 lung) 57 µM | GI50 (OVCAR-3 ovarian) 31.9 µM | GI50 (A498 renal) 33.4 µM | GI50 (A549 NSCLC) 31.8 µM | GI50 (PC-3 prostate) 32.6 µM | GI50 (TK-10 renal) 48.5 µM | GI50 (IGROV1 ovarian) 34.8 µM | GI50 (SF-295 CNS) 25.5 µM | GI50 (786-0 renal) 31.9 µM | GI50 (T-47D breast) 44.3 µM | GI50 (OVCAR-8 ovarian) 40.4 µM | GI50 (U251 CNS) 38.5 µM | GI50 (LOX IMVI melanoma) 36 µM | GI50 (HOP-92 NSCLC) 17.9 µM | GI50 (CAKI-1 renal) 26.3 µM | GI50 (SF-268 CNS) 59.8 µM | GI50 (SNB-19 CNS) 44.5 µM | GI50 (SF-539 CNS) 20.2 µM | GI50 (SW-620 colon) 46.7 µM | GI50 (MDA-MB-231 breast) 46.8 µM | GI50 (K-562 leukemia) 69.8 µM | GI50 (KM12 colon) 27.4 µM | GI50 (NCI-H460 lung) 37.5 µM | GI50 (NCI/ADR-RES ovarian) 42.9 µM | GI50 (OVCAR-5 ovarian) 51.6 µM | GI50 (SK-MEL-5 melanoma) 20.5 µM | GI50 (UACC-257 melanoma) 29.4 µM | GI50 (RPMI-8226 leukemia) 38.1 µM | GI50 (EKVX NSCLC) 43.4 µM | GI50 (DU-145 prostate) 37.9 µM | GI50 (HCT-15 colon) 31.5 µM | GI50 (HCC-2998 colon) 22.5 µM | GI50 (MALME-3M melanoma) 28.1 µM | GI50 (MOLT-4 leukemia) 41.8 µM | GI50 (MCF7 breast) 49.7 µM | GI50 (CCRF-CEM leukemia) 26.2 µM | GI50 (COLO 205 colon) 26 µM | GI50 (UACC-62 melanoma) 25.5 µM | GI50 (SK-MEL-2 melanoma) 21.6 µM | GI50 (HS 578T breast) 44.2 µM | GI50 (MDA-MB-435) 27.8 µM | GI50 (SR leukemia) 35.6 µM | GI50 (HCT-116 colon) 24.5 µM | GI50 (ACHN renal) 35.2 µM
65.5 µM: TGI (BT-549 breast)
76.9 µM: TGI (OVCAR-3 ovarian)
71.7 µM: TGI (COLO 205 colon)
90 µM: TGI (HCT-15 colon)
81.6 µM: TGI (UACC-257 melanoma)
51.3 µM: TGI (HOP-92 NSCLC)
39.1 µM: TGI (SF-539 CNS)
48.3 µM: TGI (HCC-2998 colon)
> 100 µM: TGI (OVCAR-4 ovarian) | TGI (SK-MEL-28 melanoma) | TGI (SN12C renal) | TGI (SNB-75 CNS) | TGI (HT29 colon) | TGI (RXF 393 renal) | TGI (NCI-H226 lung) | TGI (A549 NSCLC) | TGI (PC-3 prostate) | TGI (TK-10 renal) | TGI (IGROV1 ovarian) | TGI (T-47D breast) | TGI (OVCAR-8 ovarian) | TGI (U251 CNS) | TGI (LOX IMVI melanoma) | TGI (SF-268 CNS) | TGI (SNB-19 CNS) | TGI (SW-620 colon) | TGI (MDA-MB-231 breast) | TGI (K-562 leukemia) | TGI (NCI-H460 lung) | TGI (NCI/ADR-RES ovarian) | TGI (OVCAR-5 ovarian) | TGI (RPMI-8226 leukemia) | TGI (EKVX NSCLC) | TGI (DU-145 prostate) | TGI (MOLT-4 leukemia) | TGI (MCF7 breast) | TGI (CCRF-CEM leukemia) | TGI (HS 578T breast) | TGI (SR leukemia) | TGI (ACHN renal)
40.2 µM: TGI (SK-MEL-5 melanoma)
67.9 µM: TGI (M14 melanoma) | TGI (CAKI-1 renal)
87.1 µM: TGI (A498 renal)
87.8 µM: TGI (NCI-H23 lung)
91.4 µM: TGI (786-0 renal)
61.9 µM: TGI (UACC-62 melanoma)
